Laboratory results as given in ChEMBL document CHEMBL3991601, “The target landscape of clinical kinase drugs” (Science, 2017).
Active and inactive are the calls of the source.

What was measured:
[1] = target: Cyclin-dependent kinase 6 (Homo sapiens, UniProt Q00534)
[2] = target: Tyrosine-protein kinase CSK (Homo sapiens, UniProt P41240)
[3] = target: T1, Phenylalanine--tRNA ligase beta subunit (Homo sapiens, UniProt Q9NSD9)
T1 sequence (Q9NSD9 whole entry): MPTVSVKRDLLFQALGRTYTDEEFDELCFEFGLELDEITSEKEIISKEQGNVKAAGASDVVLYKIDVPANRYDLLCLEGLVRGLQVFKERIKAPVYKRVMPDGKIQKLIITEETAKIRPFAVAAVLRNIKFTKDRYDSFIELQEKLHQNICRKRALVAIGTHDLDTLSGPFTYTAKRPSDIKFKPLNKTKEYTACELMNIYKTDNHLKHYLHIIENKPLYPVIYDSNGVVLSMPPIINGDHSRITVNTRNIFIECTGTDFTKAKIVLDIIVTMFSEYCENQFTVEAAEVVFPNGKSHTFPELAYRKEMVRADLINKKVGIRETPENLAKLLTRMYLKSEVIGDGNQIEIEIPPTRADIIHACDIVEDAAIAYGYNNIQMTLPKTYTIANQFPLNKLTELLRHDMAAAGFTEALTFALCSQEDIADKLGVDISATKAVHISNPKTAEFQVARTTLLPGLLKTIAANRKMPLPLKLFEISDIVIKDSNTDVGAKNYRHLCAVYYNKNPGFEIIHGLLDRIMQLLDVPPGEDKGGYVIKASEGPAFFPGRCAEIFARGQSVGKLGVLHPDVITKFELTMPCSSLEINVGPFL

[4] = target: T2, NUAK family SNF1-like kinase 2 (Homo sapiens, UniProt Q9H093)
T2 sequence (Q9H093 whole entry): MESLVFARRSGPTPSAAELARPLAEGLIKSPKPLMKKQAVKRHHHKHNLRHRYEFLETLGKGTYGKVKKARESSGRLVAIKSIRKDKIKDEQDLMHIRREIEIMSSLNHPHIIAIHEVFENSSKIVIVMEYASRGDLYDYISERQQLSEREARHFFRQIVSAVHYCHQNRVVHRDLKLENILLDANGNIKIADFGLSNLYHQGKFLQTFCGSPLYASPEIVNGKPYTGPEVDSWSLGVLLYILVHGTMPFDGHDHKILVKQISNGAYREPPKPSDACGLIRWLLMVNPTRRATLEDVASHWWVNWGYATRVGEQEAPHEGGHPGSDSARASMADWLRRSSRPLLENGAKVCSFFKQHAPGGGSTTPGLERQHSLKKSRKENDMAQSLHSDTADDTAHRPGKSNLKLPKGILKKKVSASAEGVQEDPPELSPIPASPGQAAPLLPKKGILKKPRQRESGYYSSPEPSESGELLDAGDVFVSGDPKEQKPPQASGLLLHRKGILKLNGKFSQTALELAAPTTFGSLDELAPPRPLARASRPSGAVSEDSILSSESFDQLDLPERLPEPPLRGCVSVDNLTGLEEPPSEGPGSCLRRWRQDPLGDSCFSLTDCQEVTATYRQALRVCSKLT

[5] = target: T3, Ras-related protein Rab-10 (Homo sapiens, UniProt P61026)
T3 sequence (P61026 whole entry): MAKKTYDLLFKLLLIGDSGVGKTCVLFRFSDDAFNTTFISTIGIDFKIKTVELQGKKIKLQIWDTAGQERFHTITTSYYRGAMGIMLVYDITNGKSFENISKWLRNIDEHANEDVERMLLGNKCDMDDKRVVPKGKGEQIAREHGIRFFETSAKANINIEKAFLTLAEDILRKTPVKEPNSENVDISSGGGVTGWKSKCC

Wee1-like protein kinase = Wee1-like protein kinase (Homo sapiens, UniProt P30291)
[6] = target: Serine/threonine-protein kinase MRCK alpha (Homo sapiens, UniProt Q5VT25)
[7] = target: T4, Serine/threonine-protein kinase PLK4 (Homo sapiens, UniProt O00444)
T4 sequence (O00444 whole entry): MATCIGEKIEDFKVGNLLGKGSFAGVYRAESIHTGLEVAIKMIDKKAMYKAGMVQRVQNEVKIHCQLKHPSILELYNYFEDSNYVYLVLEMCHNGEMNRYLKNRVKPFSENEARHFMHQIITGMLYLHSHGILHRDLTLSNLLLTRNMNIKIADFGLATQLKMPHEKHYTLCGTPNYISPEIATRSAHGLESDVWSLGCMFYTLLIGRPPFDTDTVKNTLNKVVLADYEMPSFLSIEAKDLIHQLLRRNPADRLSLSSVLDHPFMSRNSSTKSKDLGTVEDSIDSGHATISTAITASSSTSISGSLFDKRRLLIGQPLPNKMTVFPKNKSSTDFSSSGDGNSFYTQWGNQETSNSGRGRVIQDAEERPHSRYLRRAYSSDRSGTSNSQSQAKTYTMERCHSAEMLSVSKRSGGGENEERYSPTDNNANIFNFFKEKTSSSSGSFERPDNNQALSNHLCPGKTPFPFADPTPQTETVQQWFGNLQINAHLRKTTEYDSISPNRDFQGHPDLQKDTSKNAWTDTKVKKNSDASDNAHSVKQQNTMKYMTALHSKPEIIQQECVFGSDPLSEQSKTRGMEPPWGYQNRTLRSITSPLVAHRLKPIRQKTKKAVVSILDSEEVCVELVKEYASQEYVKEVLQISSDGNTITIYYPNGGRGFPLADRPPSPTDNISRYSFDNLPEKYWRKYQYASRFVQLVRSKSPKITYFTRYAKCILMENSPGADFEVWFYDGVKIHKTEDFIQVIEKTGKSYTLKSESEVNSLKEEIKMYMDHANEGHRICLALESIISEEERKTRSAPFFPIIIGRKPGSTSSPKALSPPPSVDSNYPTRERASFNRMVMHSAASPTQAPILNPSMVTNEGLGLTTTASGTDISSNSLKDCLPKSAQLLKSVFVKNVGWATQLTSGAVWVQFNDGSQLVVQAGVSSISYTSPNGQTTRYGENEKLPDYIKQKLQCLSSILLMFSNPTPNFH

[8] = target: Mitogen-activated protein kinase kinase kinase kinase 4 (Homo sapiens, UniProt O95819)
Also: in the data inactive means no Kd found up to 30 µM.

Sequence of Wee1-like protein kinase (P30291 whole entry): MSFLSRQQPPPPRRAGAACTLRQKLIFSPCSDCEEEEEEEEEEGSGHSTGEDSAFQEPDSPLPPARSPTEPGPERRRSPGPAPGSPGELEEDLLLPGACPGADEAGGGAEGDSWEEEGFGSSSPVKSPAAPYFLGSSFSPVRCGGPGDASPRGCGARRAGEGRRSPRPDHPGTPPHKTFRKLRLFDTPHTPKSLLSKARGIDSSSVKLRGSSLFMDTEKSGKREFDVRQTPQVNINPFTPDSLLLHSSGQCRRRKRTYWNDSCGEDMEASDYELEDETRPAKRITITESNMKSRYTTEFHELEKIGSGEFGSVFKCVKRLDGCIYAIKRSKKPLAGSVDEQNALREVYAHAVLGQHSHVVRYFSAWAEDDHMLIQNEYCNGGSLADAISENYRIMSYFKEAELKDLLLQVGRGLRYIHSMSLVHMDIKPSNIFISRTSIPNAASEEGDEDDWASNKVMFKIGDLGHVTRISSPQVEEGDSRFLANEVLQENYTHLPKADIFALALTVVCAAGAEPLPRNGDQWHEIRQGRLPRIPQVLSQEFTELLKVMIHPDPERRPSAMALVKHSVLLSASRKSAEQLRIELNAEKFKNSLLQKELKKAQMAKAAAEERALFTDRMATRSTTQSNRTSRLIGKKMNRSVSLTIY
Sequence of Mitogen-activated protein kinase kinase kinase kinase 4 (O95819 whole entry): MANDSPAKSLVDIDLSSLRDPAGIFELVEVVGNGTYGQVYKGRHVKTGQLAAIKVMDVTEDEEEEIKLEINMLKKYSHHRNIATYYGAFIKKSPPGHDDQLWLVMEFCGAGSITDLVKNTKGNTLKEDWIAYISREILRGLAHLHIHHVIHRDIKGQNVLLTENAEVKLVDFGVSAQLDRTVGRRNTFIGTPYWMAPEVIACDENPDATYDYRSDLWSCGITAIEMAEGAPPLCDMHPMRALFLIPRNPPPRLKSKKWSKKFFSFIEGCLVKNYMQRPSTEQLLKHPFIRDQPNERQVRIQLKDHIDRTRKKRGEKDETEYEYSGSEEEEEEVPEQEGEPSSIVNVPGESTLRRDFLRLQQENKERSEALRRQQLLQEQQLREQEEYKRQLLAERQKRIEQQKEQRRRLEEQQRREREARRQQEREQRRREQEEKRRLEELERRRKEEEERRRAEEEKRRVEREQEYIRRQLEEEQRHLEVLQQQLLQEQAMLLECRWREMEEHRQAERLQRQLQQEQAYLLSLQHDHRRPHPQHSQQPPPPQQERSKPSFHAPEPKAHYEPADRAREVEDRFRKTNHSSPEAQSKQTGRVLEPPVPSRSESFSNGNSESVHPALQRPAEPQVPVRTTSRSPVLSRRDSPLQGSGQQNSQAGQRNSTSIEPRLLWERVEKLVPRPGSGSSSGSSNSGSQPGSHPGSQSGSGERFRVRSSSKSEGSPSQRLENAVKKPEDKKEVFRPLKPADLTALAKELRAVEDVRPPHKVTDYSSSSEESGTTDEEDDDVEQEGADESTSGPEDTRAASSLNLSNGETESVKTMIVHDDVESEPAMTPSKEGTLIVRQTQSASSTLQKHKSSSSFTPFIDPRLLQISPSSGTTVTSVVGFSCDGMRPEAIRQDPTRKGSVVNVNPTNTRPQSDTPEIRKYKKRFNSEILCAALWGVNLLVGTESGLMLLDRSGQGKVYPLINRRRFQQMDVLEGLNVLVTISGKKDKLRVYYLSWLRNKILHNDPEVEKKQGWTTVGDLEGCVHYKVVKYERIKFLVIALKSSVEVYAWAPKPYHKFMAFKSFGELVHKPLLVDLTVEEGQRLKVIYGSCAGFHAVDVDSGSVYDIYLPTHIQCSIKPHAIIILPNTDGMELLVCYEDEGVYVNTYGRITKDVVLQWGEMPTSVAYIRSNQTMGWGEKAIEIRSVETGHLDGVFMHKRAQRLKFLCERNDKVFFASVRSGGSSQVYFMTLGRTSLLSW
Sequence of Serine/threonine-protein kinase MRCK alpha (Q5VT25 whole entry): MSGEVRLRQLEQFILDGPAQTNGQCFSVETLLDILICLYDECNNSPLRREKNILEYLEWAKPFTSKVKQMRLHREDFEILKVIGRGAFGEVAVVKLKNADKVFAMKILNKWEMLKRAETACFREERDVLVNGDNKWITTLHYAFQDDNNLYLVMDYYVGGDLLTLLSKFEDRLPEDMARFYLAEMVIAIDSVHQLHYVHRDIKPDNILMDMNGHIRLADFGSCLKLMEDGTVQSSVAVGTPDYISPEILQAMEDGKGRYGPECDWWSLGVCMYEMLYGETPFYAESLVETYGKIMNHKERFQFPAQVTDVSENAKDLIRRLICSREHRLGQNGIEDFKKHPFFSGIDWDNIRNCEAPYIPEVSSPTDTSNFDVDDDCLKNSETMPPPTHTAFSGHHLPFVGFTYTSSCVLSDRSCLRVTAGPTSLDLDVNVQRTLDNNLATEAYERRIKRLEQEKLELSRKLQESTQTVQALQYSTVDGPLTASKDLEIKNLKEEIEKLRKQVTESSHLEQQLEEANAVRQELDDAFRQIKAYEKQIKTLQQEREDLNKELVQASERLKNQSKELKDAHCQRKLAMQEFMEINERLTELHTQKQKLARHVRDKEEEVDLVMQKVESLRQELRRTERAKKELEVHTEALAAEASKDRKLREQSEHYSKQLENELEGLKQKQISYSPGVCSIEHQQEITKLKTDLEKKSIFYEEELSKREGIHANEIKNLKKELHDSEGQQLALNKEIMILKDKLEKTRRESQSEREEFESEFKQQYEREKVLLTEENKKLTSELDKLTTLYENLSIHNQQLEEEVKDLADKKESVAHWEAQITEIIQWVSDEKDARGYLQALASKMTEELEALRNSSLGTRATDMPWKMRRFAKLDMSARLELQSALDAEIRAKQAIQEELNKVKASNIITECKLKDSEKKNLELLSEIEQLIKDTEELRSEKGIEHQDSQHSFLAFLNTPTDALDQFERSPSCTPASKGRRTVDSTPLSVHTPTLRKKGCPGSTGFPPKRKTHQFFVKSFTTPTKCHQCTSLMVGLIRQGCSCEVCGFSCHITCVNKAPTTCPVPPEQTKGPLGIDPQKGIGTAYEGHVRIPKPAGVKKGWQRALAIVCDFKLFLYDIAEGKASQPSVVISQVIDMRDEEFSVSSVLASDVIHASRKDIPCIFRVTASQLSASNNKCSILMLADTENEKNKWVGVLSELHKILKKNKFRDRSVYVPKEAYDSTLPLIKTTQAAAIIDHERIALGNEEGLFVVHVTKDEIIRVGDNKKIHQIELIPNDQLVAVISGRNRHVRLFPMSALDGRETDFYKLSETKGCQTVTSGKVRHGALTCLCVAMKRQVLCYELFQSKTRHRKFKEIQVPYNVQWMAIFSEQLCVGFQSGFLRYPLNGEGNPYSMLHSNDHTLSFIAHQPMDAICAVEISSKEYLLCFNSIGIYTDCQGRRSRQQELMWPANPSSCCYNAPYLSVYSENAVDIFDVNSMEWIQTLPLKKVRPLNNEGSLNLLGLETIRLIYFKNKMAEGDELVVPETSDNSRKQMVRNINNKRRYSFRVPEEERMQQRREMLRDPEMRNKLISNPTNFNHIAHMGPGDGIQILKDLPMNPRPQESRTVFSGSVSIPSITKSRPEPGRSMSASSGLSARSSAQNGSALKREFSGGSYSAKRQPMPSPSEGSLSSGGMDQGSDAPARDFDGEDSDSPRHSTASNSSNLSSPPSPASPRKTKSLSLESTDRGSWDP
Sequence of Cyclin-dependent kinase 6 (Q00534 whole entry): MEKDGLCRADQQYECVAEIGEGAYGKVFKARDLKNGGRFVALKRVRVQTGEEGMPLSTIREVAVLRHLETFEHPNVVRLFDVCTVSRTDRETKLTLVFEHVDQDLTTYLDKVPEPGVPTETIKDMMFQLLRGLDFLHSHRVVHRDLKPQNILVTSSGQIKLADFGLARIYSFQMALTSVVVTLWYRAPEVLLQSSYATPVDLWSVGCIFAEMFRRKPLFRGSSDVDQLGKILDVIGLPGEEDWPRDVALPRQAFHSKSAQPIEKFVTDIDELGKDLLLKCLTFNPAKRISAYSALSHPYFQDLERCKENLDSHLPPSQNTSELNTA
Sequence of Tyrosine-protein kinase CSK (P41240 whole entry): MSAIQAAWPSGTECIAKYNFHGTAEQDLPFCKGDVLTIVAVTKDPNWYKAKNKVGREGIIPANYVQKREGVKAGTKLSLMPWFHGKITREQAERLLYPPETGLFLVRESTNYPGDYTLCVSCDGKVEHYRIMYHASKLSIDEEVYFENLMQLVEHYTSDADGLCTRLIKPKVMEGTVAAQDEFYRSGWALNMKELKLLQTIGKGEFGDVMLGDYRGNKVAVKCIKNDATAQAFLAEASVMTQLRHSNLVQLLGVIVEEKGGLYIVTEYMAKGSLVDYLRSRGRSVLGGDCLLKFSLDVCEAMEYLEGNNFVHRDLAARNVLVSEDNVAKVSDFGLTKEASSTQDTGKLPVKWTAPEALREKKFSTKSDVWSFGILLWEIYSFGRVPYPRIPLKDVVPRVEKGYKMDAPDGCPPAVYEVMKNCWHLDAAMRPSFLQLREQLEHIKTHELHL

Compound | Kd [1] | Kd [2] | Kd [3] | Kd [4] | Kd [5] | Kd (Wee1-like protein kinase) | Kd [6] | Kd [7] | Kd [8]
CN(c1ncccc1CNc1nc(Nc2ccc3c(c2)CC(=O)N3)ncc1C(F)(F)F)S(C)(=O)=O [PF-00562271] | > 30 µM (inactive) | > 30 µM (inactive) | > 30 µM (inactive) | > 30 µM (inactive) | > 30 µM (inactive) | > 30 µM (inactive) | – | – | –
C=CCn1c(=O)c2cnc(Nc3ccc(N4CCN(C)CC4)cc3)nc2n1-c1cccc(C(C)(C)O)n1 [ADAVOSERTIB] | > 30 µM (inactive) | > 30 µM (inactive) | > 30 µM (inactive) | > 30 µM (inactive) | > 30 µM (inactive) | – | > 30 µM (inactive) | > 30 µM (inactive) | –
CNC(=O)c1cc(COc2nnc(Nc3ccc(Cl)cc3)c3ccoc23)ccn1 [TELATINIB] | > 30 µM (inactive) | > 30 µM (inactive) | > 30 µM (inactive) | > 30 µM (inactive) | > 30 µM (inactive) | > 30 µM (inactive) | – | > 30 µM (inactive) | > 30 µM (inactive)
COc1cc2c(Oc3ccc4[nH]c(C)cc4c3F)ncnc2cc1OCCCN1CCCC1 [CEDIRANIB] | > 30 µM (inactive) | – | > 30 µM (inactive) | – | > 30 µM (inactive) | – | – | – | –
CC[C@@](C)(Nc1ccnc(-c2c[nH]c3ncccc23)n1)C(=O)NCC(F)(F)F [DECERNOTINIB] | > 30 µM (inactive) | > 30 µM (inactive) | > 30 µM (inactive) | > 30 µM (inactive) | > 30 µM (inactive) | > 30 µM (inactive) | 0.561 µM (active) | – | > 30 µM (inactive)
Cc1cc(-c2cc(OC(=O)c3ccccc3)ccc2Cl)cc2nnc(Nc3ccc(OCCN4CCCC4)cc3)nc12 [TG100-801] | > 30 µM (inactive) | > 30 µM (inactive) | > 30 µM (inactive) | – | > 30 µM (inactive) | > 30 µM (inactive) | > 30 µM (inactive) | > 30 µM (inactive) | > 30 µM (inactive)
N#CCNC(=O)c1ccc(-c2ccnc(Nc3ccc(N4CCOCC4)cc3)n2)cc1 [MOMELOTINIB] | 3.36 µM | > 30 µM (inactive) | > 30 µM (inactive) | > 30 µM (inactive) | – | – | – | – | –
CC1(C)CNc2cc(NC(=O)c3cccnc3NCc3ccncc3)ccc21 [MOTESANIB] | > 30 µM (inactive) | – | > 30 µM (inactive) | – | > 30 µM (inactive) | – | – | – | –
CNC(=O)c1ccc(Nc2ncc(C(F)(F)F)c(NCc3nccnc3N(C)S(C)(=O)=O)n2)cc1 [DEFACTINIB] | – | > 30 µM (inactive) | > 30 µM (inactive) | 0.454 µM | > 30 µM (inactive) | – | > 30 µM (inactive) | > 30 µM (inactive) | > 30 µM (inactive)
CCOc1ccn(-c2ccc(F)cc2)c(=O)c1C(=O)Nc1ccc(Oc2ccnc(N)c2Cl)c(F)c1 [BMS-777607] | > 30 µM (inactive) | > 30 µM (inactive) | > 30 µM (inactive) | > 30 µM (inactive) | – | > 30 µM (inactive) | > 30 µM (inactive) | 0.301 µM | –
CN(C)C/C=C/C(=O)Nc1cc2c(Nc3ccc(F)c(Cl)c3)ncnc2cc1O[C@H]1CCOC1 [AFATINIB] | > 30 µM (inactive) | – | > 30 µM (inactive) | – | > 30 µM (inactive) | – | – | – | –
Cn1cc(-c2[nH]c3cc(NC(=O)[C@H](N)C4CCCCC4)cc4c3c2C=NNC4=O)cn1 | > 30 µM (inactive) | > 30 µM (inactive) | > 30 µM (inactive) | > 30 µM (inactive) | > 30 µM (inactive) | 4.86 µM (active) | > 30 µM (inactive) | – | > 30 µM (inactive)
Cn1cnc2c(F)c(Nc3ccc(Br)cc3Cl)c(C(=O)NOCCO)cc21 [SELUMETINIB] | > 30 µM (inactive) | – | > 30 µM (inactive) | – | > 30 µM (inactive) | – | – | – | –
Cn1c(=O)n(-c2ccc(C(C)(C)C#N)cc2)c2c3cc(-c4cnc5ccccc5c4)ccc3ncc21 [DACTOLISIB] | > 30 µM (inactive) | > 30 µM (inactive) | > 30 µM (inactive) | > 30 µM (inactive) | > 30 µM (inactive) | > 30 µM (inactive) | > 30 µM (inactive) | > 30 µM (inactive) | –
COc1cc2c(N3CCN(C(=O)Nc4ccc(OC(C)C)cc4)CC3)ncnc2cc1OCCCN1CCCCC1 [TANDUTINIB] | > 30 µM (inactive) | – | 0.006 µM | – | > 30 µM (inactive) | – | – | – | –
O=S(=O)(c1cccc2cnccc12)N1CCCNCC1 [FASUDIL] | > 30 µM (inactive) | > 30 µM (inactive) | > 30 µM (inactive) | > 30 µM (inactive) | > 30 µM (inactive) | > 30 µM (inactive) | – | – | –
CCN(CCCOc1ccc2c(Nc3cc(CC(=O)Nc4cccc(F)c4)n[nH]3)ncnc2c1)CCOP(=O)(O)O [BARASERTIB] | > 30 µM (inactive) | > 30 µM (inactive) | > 30 µM (inactive) | > 30 µM (inactive) | > 30 µM (inactive) | > 30 µM (inactive) | > 30 µM (inactive) | > 30 µM (inactive) | –
C[C@@]1(C(=O)Nc2ccc(F)nc2)CCCN1c1nc(Nc2cc(C3CC3)n[nH]2)c2cccn2n1 [BMS-754807] | > 30 µM (inactive) | – | > 30 µM (inactive) | – | > 30 µM (inactive) | – | – | – | –
CN1CCN(c2nc(C3=C(c4c[nH]c5ccccc45)C(=O)NC3=O)c3ccccc3n2)CC1 [SOTRASTAURIN] | > 30 µM (inactive) | > 30 µM (inactive) | > 30 µM (inactive) | > 30 µM (inactive) | > 30 µM (inactive) | > 30 µM (inactive) | > 30 µM (inactive) | > 30 µM (inactive) | –
O=S(=O)(c1cccc2c(O)nccc12)N1CCCNCC1 [HYDROXYFASUDIL] | > 30 µM (inactive) | > 30 µM (inactive) | > 30 µM (inactive) | > 30 µM (inactive) | > 30 µM (inactive) | – | > 30 µM (inactive) | > 30 µM (inactive) | > 30 µM (inactive)
C[C@]1(O)C[C@@H](c2nc(-c3ccc4ccc(-c5ccccc5)nc4c3)c3c(N)nccn32)C1 [LINSITINIB] | > 30 µM (inactive) | > 30 µM (inactive) | > 30 µM (inactive) | > 30 µM (inactive) | > 30 µM (inactive) | > 30 µM (inactive) | – | – | –
